Measured values taken from article PMC6271966, “Synthesis and Biological Activity of Some Bile Acid-Based Camptothecin Analogues” (Molecules, 2014).
Where two headings read alike, the source gives them in different places.

Columns and labels:
[1] = test system: human hepatoma cell line (SMMC-7721); test: MTT cytotoxicity assay, SMMC-7721; assay type: cell-based
Method: (§1) The cytotoxicity of these compounds against three cancer cell lines was assayed using a conventional microtitre plate tetrazolium cytotoxicity assay. The human hepatoma cancer cell line (SMMC-7721), the colon cancer cell line (HCT-116), and the human breast cancer cell line (MCF-7) were provided by The Chinese Academy of Sciences cell bank. These cells were plated at a density of 1 × 10^5 cells/mL and incubated in a 96-well late for 24 h (37 °C, 5% CO2). The cells were then exposed to various concentrations of the compounds (0.0032, 0.016, 0.08, 0.4, 2, 10, and 50 µM/mL) continuously for 72 h. After this incubation, MTT solution (20 μL, 5 mg/mL) was added to each well and incubated for a further 4 h before removing the media. Formazan crystals were then dissolved by the addition of DMSO (100 μL per well). After mixing, the absorbance was read at 540 nm on a microplate reader. These assays were performed in three independent experiments. Wells containing no drugs, or CPT, were used as negative and positive controls, respectively. The IC50 values, defined as the concentration of compounds that produced a 50% decrease in surviving cells, were calculated using the Logit-method.

[2] = in this project
Method: Preliminary anti-tumour activity studies of E2, G4, and H2 were evaluated in vivo in a mouse liver adenocarcinoma model (H22) and compared with CPT.

[3] = test system: human breast cancer cell line (MCF-7); test: MTT cytotoxicity assay, MCF-7; assay type: cell-based
Method: as §1

[4] = test system: human colon cancer cell line (HCT-116); test: MTT cytotoxicity assay, HCT-116; assay type: cell-based
Method: as §1

[5] = Body weight and surviving mice in the H22 in vivo study; parameters: species or system mouse; settings: for Mice Number End of Study: 4 mice at start
Method: Anti-tumour activity screens of CPT-bile acid analogues were conducted in KM mice with H22 mouse liver tumours. […] These groups (n = 4) were treated with either vehicle (control), CPT, or the CPT-bile acid analogues. Mice received i.p. treatments once every two days.

[6] = test system: MCF-7 cells; test: Fluorescence microscopy of compound entry into MCF-7 cells; assay type: cell-based, human; settings: data not shown
Method: (§2) Compound E2 (final concentrations of 10 µM/mL and […]) and CPT (final concentrations of 10 µM/mL and 20 µM/mL) were directly added to the cell culture medium and incubated for 1 h, 2 h or 4 h at 37 °C. The cells were then gently washed three times with physiological saline. Cellular fluorescence was imaged using a fluorescence microscope (Zeiss inverted Microscope Axiovert 200 equipped with a NIKON DS-FiL (Sendai, Japan). The images were taken using ultraviolet light.

[7] = Lactone stability in rat blood serum (HPLC); assay type: in vitro ADME
Method: Compounds E2, F2, G2, and H2 were dissolved in DMSO (100 μL, 4 mM/L) and incubated in rat blood serum (4 mL) at 37 °C. Aliquots were taken at different time points (0, 2, 4, 6, 8, 10, 12, and 24 h) and examined by HPLC, using CPT as the reference.

[8] = test system: SMMC-7721 cells; test: Fluorescence microscopy of compound entry into SMMC-7721 cells; assay type: cell-based, human; settings: 10 or 20 µM, up to 4 h at 37 °C, ultraviolet light
Method: as §2

[9] = test system: H22 mouse liver tumours; test: In vivo anti-tumour activity, H22 mouse liver tumour model; settings: H22 KM mice, i.p. every two days
Method: Anti-tumour activity screens of CPT-bile acid analogues were conducted in KM mice with H22 mouse liver tumours. Briefly, female mice weighing 18–22 g were subcutaneously inoculated at the right flank with a tumour cell suspension (1 × 10^6 cells) in 0.2 mL of phosphate-buffered saline. The mice were divided into subgroups 24 h after inoculation. These groups (n = 4) were treated with either vehicle (control), CPT, or the CPT-bile acid analogues. Mice received i.p. treatments once every two days. When the tumour weight of the control group reached 1.0–1.5 g, the mice were killed and the TIR (%) calculated.

CC[C@@]1(O)C(=O)OCc2c1cc1n(c2=O)Cc2cc3ccccc3nc2-1 [CPT, Camptothecin]
IC50 ([1]; MTT, 72 h exposure, SMMC-7721, read-out: In Vitro Cytotoxicity (IC50, µM) SMMC7721): 0.56 µM | maximum dose which the mouse can tolerate [2]: 27.45 µmol/kg | IC50 ([3]; MCF7, MTT, 72 h exposure, MCF-7, read-out: In Vitro Cytotoxicity (IC50, µM) MCF-7): 0.57 µM | IC50 ([4]; MTT, 72 h exposure, HCT-116, read-out: In Vitro Cytotoxicity (IC50, µM) HCT-116): 0.52 µM | Mice Number End of Study ([5]; dose 27.45 × 3 µmol/kg i.p.): 3 | Body Weight (g) End of Study ([5]; dose 27.45 × 3 µmol/kg i.p., start of study 21.4 g): 18.6 g | Cellular fluorescence (accumulation in cells) [6]: no fluorescent signal | half-life at 97.6 µM ([7]; rat blood serum, 37 °C, HPLC, up to 24 h, read-out: Half-Life (converted)): 2.3 h | Cellular fluorescence (accumulation in cells) [8]: no distinct fluorescence | TIR (%) ([9]; dose 27.45 × 3 µmol/kg): 67.26%

CC[C@@]1(OC(=O)CNC(=O)CCC(C)C2CCC3C4CCC5C[C@H](O)CC[C@]5(C)C4C[C@H](O)[C@]23C)C(=O)OCc2c1cc1n(c2=O)Cc2cc3ccccc3nc2-1 (stereo partly drawn) [Compound E2, Camptothecin-20 (S)-O-glycine Ester-[N-(3′α,12′α-dihydroxy-24′-carbonyl-5′β-cholane)]]
melting point: 203 to 204 °C | IC50 ([1]; SMMC-7721, 72 h, read-out: In Vitro Cytotoxicity (IC50, µM) SMMC7721): 0.36 µM | IC50 ([3]; MCF7, 72 h, read-out: In Vitro Cytotoxicity (IC50, µM) MCF-7): 150 µM | IC50 ([4]; HCT-116, 72 h, read-out: In Vitro Cytotoxicity (IC50, µM) HCT-116): 15.8 µM | Mice Number End of Study ([5]; dose 19.23 × 3 µmol/kg i.p.): 4 | Body Weight (g) End of Study ([5]; dose 19.23 × 3 µmol/kg i.p., start of study 19.9 g): 21.9 g | Mice Number End of Study ([5]; dose 38.45 × 3 µmol/kg i.p.): 4 | Body Weight (g) End of Study ([5]; dose 38.45 × 3 µmol/kg i.p., start of study 20.5 g): 21.5 g | Mice Number End of Study ([5]; dose 57.69 × 3 µmol/kg i.p.): 4 | Body Weight (g) End of Study ([5]; dose 57.69 × 3 µmol/kg i.p., start of study 20.5 g): 20.6 g | Cellular fluorescence (accumulation in cells) [6]: no fluorescent signal | half-life at 97.6 µM ([7]; rat, serum): > 24 h | Cellular fluorescence (accumulation in cells) [8]: accumulated in the SMMC-7721 cells | TIR (%) ([9]; dose 19.23 × 3 µmol/kg): 4.09% | TIR (%) ([9]; dose 38.45 × 3 µmol/kg): 16.10% | TIR (%) ([9]; dose 57.69 × 3 µmol/kg): 40.13%
